Results from US11000515B2, “Compounds that interact with the Ras superfamily for the treatment of cancers, inflammatory diseases, rasopathies, and fibrotic disease” (Shy Therapeutics LLC, priority 2017, dated 2021).

Tests used:
Rac-1 = Rac-1 (Homo sapiens (Human), UniProt P63000); assay: Rac and Rho inhibition assay (labeled GTP); type: binding; details: read-out: Rac-1 % Inh.
Rho-A = Rho-A (Homo sapiens (Human), UniProt P61586); assay: Rac and Rho inhibition assay (labeled GTP); type: binding; details: read-out: Rho-A % Inh.
[1] = test system: MAPK phosphorylation in the PANC-1 pancreatic cancer cell line; assay: MAPK cell-based phosphorylation assay (cell-direct ELISA, EGF-stimulated PANC-1); details: Homo sapiens; for inhibition at 10 µM: tested at 10 μM (*), PANC-1; for inhibition at 30 µM: PANC-1, 6 hours incubation, EGF stimulation
Protocol: Cell lines: Tumor-derived pancreatic cancer cell lines PANC-1 were purchased from ATCC and were maintained according to ATCC recommendation.
Method: Cells were plated at 7500 cells/well density in 96-wells plate, starved over night, and the small molecules to be tested were added to the cells in the final concentration of 30 μM with 0.3% DMSO for 6 hours incubation at 37° C. For IC50 value determination, serial dilutions of compounds were added to cells under the same conditions. Next, cells were stimulated with 1.5 ng/ml EGF for 15 min. followed by cell fixation with 4% Formaldehyde in PBS at RT for 20 min. Phosphorylation level of MAPK was determined by Cell-direct ELISA.
Cell-direct ELISA: For each well, cells were permeabilized with PBS-Triton 0.1%, quenched with H2O2 0.6% in PBS-Triton 0.1%, and probed with anti-phospho-MAPK antibodies (R&D Systems) followed by HRP-conjugated secondary antibody (Jackson Immunoresearch, West Grove, Pa.). Next, a solution 50 μM of the fluorescent substrate AmpliFlu Red (Sigma) was added and incubated at RT for 20 min. At the end of the incubation time, fluorescence was measured at 595 nm on a microplate reader (AF2200; Eppendorf, Inc., Hamburg, Germany).

[2] = test system: MIA-PACA2 pancreatic cancer cell lines; assay: Cell proliferation assay, MIA-PACA2, alternate assay conditions (DAPI staining, 4 days); type: cell-based; details: Homo sapiens; for inhibition at 10 µM: MIA PaCa-2, 96 h, tested at 10 μM (*), 4 days, alternate conditions
Protocol: (§1) Cell lines: Tumor-derived pancreatic cancer cell lines MIA-PACA2 were purchased from ATCC and grown in complete DMEM-High Glucose medium supplemented with penicillin (100 U/mL), streptomycin (100 μg/mL), and 10% heat-inactivated FBS at 37° C. in a humidified incubator with 5% CO2.
Method: Cells are plated at 4000 cells/well density in 96-wells plate. The next day tested small molecules are added to the cells in the final concentration of 10 μM in the presence of 0.3% DMSO and 10% FBS. After small molecules addition, cells are incubated for 4 days at 37° C. in a humidified incubator with 5% CO2. For IC50 value determination, serial dilutions of compounds were added to cells under the same conditions.
Assay: At the end of the incubation period, cell cultures are fixed with a 50-50 mixture (v/v) acetone-methanol for 10 minutes at −20° C., followed by rehydration in PBS for 10 minutes at room temperature. After rehydration, cells are stained with DAPI (1 μg/ml) in PBS for 10 minutes at room temperature, followed by 3 washes with PBS. After staining, DAPI fluorescence is recorded (358 nm excitation/461 nm emission) with the 96-well plate reader Molecular Devices Spectramax M3; degree of small mole-cule-dependent proliferation inhibition is calculated from raw data assuming No Serum cells value as 100%.

[3] = test system: MIA-PACA2 pancreatic cancer cell lines; assay: Cell proliferation assay, MIA-PACA2 (CellTiter 96 AQueous One, 6 days); type: cell-based; details: Homo sapiens, MIA PaCa-2, 144 h
Protocol: as §1
Method: Cells are plated at 1000 cells/well density in 96-wells plate, starved ON, and the next day tested small molecules are added to the cells in the final concentration of 30 μM with 0.3% DMSO 3 hours prior to 10% FBS addition. After serum addition cells are incubated for 6 days at 37° C. in a humidified incubator with 5% CO2. For IC50 value determination, serial dilutions of compounds were added to cells under the same conditions.
Assay: At the end of the incubation period, cell cultures are tested using the CellTiter 96® AQueous One Solution Cell Proliferation Assay kit (Promega Corporation, Madison, Wis.) according to the manufacturer specifications. Briefly, assay is performed by adding 20 μl of the CellTiter 96 Aqueous One Solution Reagent directly to culture wells, followed by for 1-4 hours incubation at 37° C. in a humidified incubator with 5% CO2. At the end of incubation time, absorbance at 492 nm is recorded with the 96-well plate reader Eppendorf AF2200, and degree of small molecule-dependent proliferation inhibition is calculated from raw data assuming No Serum cells value as 100%.

[4] = target: KRas G12D/Q61H double mutant (Homo sapiens (Human), UniProt P01116, G12D/Q61H); assay: Ras GTP binding domain inhibition assay (labeled GTP); details: at 20 μM; read-out: KRas Gl2D Q61H % Inh.
Protocol: Buffer-I: • 50 mM Tris, pH 7.5 • 150 mM NaCl (optional) • 1 mM MgCl2 • 1 mM DTT. • KRas G12D mutant protein was expressed as a His-tagged protein. Purified His-KRas G12D protein was diluted in buffer-I to a final concentration of 3-10 μg/ml. • 200 μl of the diluted His-KRas G12D protein was added to a nickel coated 96 well plate and incubated overnight at 4° C. • The next day, wells were washed 3× in 200 μl of Buffer-I. • Then 200 μl of Buffer-I were added to each well in the presence of 1% DMSO. • Tested compounds were added to the protein-coated wells at a concentration of 20 μM, and incubated for 3 hours at room temperature. While performing IC50 measurements a serial dilution of all tested concentrations was prepared.
Then 22 μl of Cy3-GTP or Cy5-GTP was added to each well. The labeled GTP was incubated for 45 min. at room temperature. • Following GTP incubation, wells were washed 3× in Buffer-I, and 200 μl of Buffer-I were added to each well. • Following washes, the amount of bound labeled-GTP was measured with an Eppendorf AF2200 plate reader.
By substituting KRas G12D mutant protein with KRas G12C mutant, KRas wild type, KRas Q61H mutant, KRas G12D/Q61H double mutant or KRas G12C/Q61H double mutant under the assay conditions described above, KRas G12C mutant KRas wild type, KRas Q61H mutant, KRas G12D/Q61H double mutant and KRas G12C/Q61H double mutant inhibition, respectively, were each determined.

Chain of Rho-A (P61586 whole entry): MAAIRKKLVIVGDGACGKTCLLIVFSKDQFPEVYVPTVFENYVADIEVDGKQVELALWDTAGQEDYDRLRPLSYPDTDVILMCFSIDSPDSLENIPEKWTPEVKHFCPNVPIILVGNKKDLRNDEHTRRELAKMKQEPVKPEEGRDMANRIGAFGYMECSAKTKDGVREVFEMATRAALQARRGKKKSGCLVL
Chain of KRas G12D/Q61H double mutant (P01116-2 other isoform, or with tags, fused parts or gaps G12D/Q61H): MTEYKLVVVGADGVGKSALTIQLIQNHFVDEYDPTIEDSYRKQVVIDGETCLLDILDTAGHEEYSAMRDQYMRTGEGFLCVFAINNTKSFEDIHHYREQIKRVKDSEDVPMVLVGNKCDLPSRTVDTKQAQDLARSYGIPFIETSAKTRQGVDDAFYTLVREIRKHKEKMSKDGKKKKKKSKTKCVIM

## COc1ccc(COC[C@H]2O[C@@H](c3csc4c(=O)[nH]c(-c5ccccn5)nc34)[C@H](O)[C@@H]2O)cc1
Rac-1
  inhibition at 20 µM: 51 to 75%
Rho-A
  inhibition at 20 µM: 76 to 100%

## Oc1nc(-c2ccccn2)nc2c(-c3ccccn3)csc12
[1]
  inhibition at 10 µM: 76 to 100%

## Oc1cccc(-c2csc3c(O)nc(-c4ccccn4)nc23)n1
[2]
  inhibition at 10 µM: 76 to 100%

## N#Cc1ccc(CC(=O)Nc2ccnc(-c3ccccn3)n2)cc1
[1]
  inhibition at 30 µM: 1 to 25%

## OCCn1ncc2c1CCCC2Nc1nc(-c2ccccn2)nc2scc(-c3ccccc3)c12 (stereo not shown)
[3]
  inhibition at 30 µM: 76 to 100%

## O=C(CCn1ccnc1)Nc1nc(-c2ccccn2)nc2sccc12
[3]
  inhibition at 30 µM: 76 to 100%

## Cc1nc(-c2ccccn2)nc(O)c1CCC(=O)Nc1ccc(C(C)C)cc1
[1]
  inhibition at 30 µM: 1 to 25%

## COC(=O)c1cc(NCc2nc(CC(C)C)no2)ccc1Cl
[1]
  inhibition at 30 µM: 1 to 25%

## COCC(C)Nc1nc(-c2ncccn2)nc2sc(-c3ccncc3)c(-c3ccccc3)c12 (stereo not shown)
[2]
  inhibition at 10 µM: 51 to 75%

## COOCCCCNC(=O)c1csc2nc(-c3ccccn3)nc(N3CCOCC3)c12
[1]
  inhibition at 30 µM: 1 to 25%

## CN(CCCc1n[nH]c(N)c1C#N)c1nc(-c2ccccn2)nc2sc(-c3ccccc3)cc12
[3]
  inhibition at 30 µM: 76 to 100%

## O=C(Nc1nnc(-c2ccccn2)[nH]1)c1ccc(Cc2ccccc2)nc1
[3]
  inhibition at 30 µM: 51 to 75%

## Cn1ccnc1-c1nc(O)c2scc(-c3cccc(OC(F)(F)F)c3)c2n1
[1]
  inhibition at 10 µM: 25 to 50%

## COc1ccnc(-c2nc(O)c3c(C#N)csc3n2)c1
Rac-1
  inhibition at 20 µM: 51 to 75%
Rho-A
  inhibition at 20 µM: 25 to 50%

## COc1ccc(-c2c(-c3ccccc3)sc3c(O)nc(-c4cccn4C)nc23)cn1
[2]
  inhibition at 10 µM: 76 to 100%
[2]; MIA PaCa-2, same assay as % inhibition: alternate conditions
  IC50: 501 to 1000 nM

## COC1CN=C(CNC(=O)c2cc3nc(-c4ccccn4)nc(O)c3s2)NC1=O (stereo not shown)
[4]
  inhibition at 20 µM: 25 to 50%
Rac-1
  inhibition at 20 µM: 51 to 75%
Rho-A
  inhibition at 20 µM: 51 to 75%

## COc1ccc(CCC(=O)Nc2nc(-c3ccccn3)nc3sccc23)cn1
[1]
  inhibition at 10 µM: 76 to 100%

## Cc1cccc(-c2c(-c3ccccc3)sc3c(O)nc(-c4nccn4C)nc23)c1
[2]
  inhibition at 10 µM: 25 to 50%

## NC(=O)C1CCN(c2nc(-c3ccccn3)nc3scc(-c4ccccc4)c23)CC1
[3]
  inhibition at 30 µM: 76 to 100%

## COc1cnc(CN)[nH]c1=O
[3]
  inhibition at 30 µM: 51 to 75%
